Results on 12 compounds are retold here after patent US11780852B2, “Methods for treating Crohn's disease using 3-((1R,3s,5S)-3-((7-((5-methyl-1H-pyrazol-3-yl)amino)-1,6-naphthyridin-5-yl)amino)-8-azabicyclo[3.2.1]octan-8-yl)propanenitrile” (priority 2015, dated 2023).

This experiment has as its system oxazolone-induced colitis. The experiment can be described thus: Mouse model of oxazolone-induced colitis. The conditions noted are these: PO, 1, 3, and/or 10 mg/kg BID (doses up to 10 mg/kg BID). Format: in vivo, BALB/C mice. Here is the method:
Assay 7: Mouse Model of Oxazalone-Induced Colitis
Oxazolone-induced colitis is an experimental model that has a histological resemblance to human ulcerative colitis (Heller et al. Immunology, 2002, 17, 629-638). Adult BALB/C mice from Harlan were used in the assay. On day 1, animals were lightly anesthetized with isoflurane and the hairs between the shoulder were carefully removed before oxazolone (4%, 150 μL, 4:1 acetone:olive oil formulation) or vehicle solution was slowly applied for skin sensitization. Seven days after skin sensitization, the mice were fasted overnight, anesthetized with isoflurane inhalation, and a 1 mL syringe equipped with a 3.5-F catheter, filled with oxazolone solution, was inserted carefully about 4 cm into the colon of the mouse. Following insertion, 50 μL of the oxazolone solution (1%, 1:1 ethanol:water formulation) was injected very slowly (over 30 sec using an injection pump) into the colon. The catheter was removed and the mice were held vertically (head down) for 2 min to ensure that the entire oxazolone solution remained inside the colon. Drug treatment (PO, BID or TID) or vehicle was initiated a day prior to the oxazolone intrarectal (IR) challenge. Two-day post oxazolone intrarectal challenge, the Disease Activity Index (DAI) was assessed by treatment-blinded experimenters for each mouse according to the criteria score: stool consistency score (0, normal; 2, loose; 4, diarrhea), gross bleeding score (0, absence; 2, blood tinged; 4, presence), and weight loss score (0, none; 1, 1%-5%; 2, 5%-10^%; 3, 10%-20%; 4, more than 20%); DAI=average of (stool consistency score+gross bleeding score+weight loss score).
Selected compounds of the invention were tested in the assay. Efficacy in the model is evidenced by a decrease in DAI score as compared with the score from vehicle treated animals.
For the compound `Cc1cc(Nc2cc3ncccc3c(N[C@@H]3C[C@H]4CCC[C@@H](C3)N4S(=O)(=O)CC3CC3)n2)n[nH]1` [Example 4-23], the “DAI score as compared with vehicle treated animals” value is reported as “did not exhibit a statistically significant decrease”.

Turning to `Cc1cc(Nc2cc3ncccc3c(N[C@@H]3C[C@H]4CC[C@@H](C3)N4S(=O)(=O)N3CC(C#N)C3)n2)n[nH]1` [Example 13, 1-(((1R,3s,5S)-3-((7-((5-methyl-1H-pyrazol-3-yl)amino)-1,6-naphthyridin-5-yl)amino)-8-azabicyclo[3.2.1]octan-8-yl)sulfonyl)azetidine-3-carbonitrile], the “DAI score as compared with vehicle treated animals” value is on record as “did not exhibit a statistically significant decrease”.

`Cc1cc(Nc2cc3ncccc3c(N[C@@H]3C[C@H]4CC[C@@H](C3)N4S(=O)(=O)CC(C)C)n2)n[nH]1` [Example 4-3]: the “DAI score as compared with vehicle treated animals” value is recorded as “did not exhibit a statistically significant decrease”.

Turning to `Cc1cc(Nc2cc3ncccc3c(N[C@@H]3C[C@H]4CCC[C@@H](C3)N4S(=O)(=O)C3CC3)n2)n[nH]1` [Example 4-18], the “DAI score as compared with vehicle treated animals” value is “did not exhibit a statistically significant decrease”.

For `COCCS(=O)(=O)N1[C@@H]2CCC[C@H]1C[C@H](Nc1nc(Nc3cc(C)[nH]n3)cc3ncccc13)C2` [Example 4-19], the “DAI score as compared with vehicle treated animals” value is “did not exhibit a statistically significant decrease”.

Take `Cc1cc(Nc2cc3ncccc3c(NC3CC4CCCC(C3)N4C(=O)C(C)O)n2)n[nH]1` (stereo not drawn) [Example 2-16]: the “DAI score as compared with vehicle treated animals” value is reported as “did not exhibit a statistically significant decrease”.

In the case of `Cc1cc(Nc2cc3ncccc3c(N[C@@H]3C[C@H]4CCC[C@@H](C3)N4S(=O)(=O)N3CC(C#N)C3)n2)n[nH]1` [Example 11, 1-(((1R,3s,5S)-3-((7-((5-methyl-1H-pyrazol-3-yl)amino)-1,6-naphthyridin-5-yl)amino)-9-azabicyclo[3.3.1]nonan-9-yl)sulfonyl)azetidine-3-carbonitrile], the “DAI score as compared with vehicle treated animals” value is reported as “did not exhibit a statistically significant decrease”.

Regarding `Cc1cc(Nc2cc3ncccc3c(N[C@@H]3C[C@H]4CC[C@@H](C3)N4S(=O)(=O)c3cccnc3)n2)n[nH]1` [Example 3, N^7-(5-methyl-H-pyrazol-3-yl)-N-((1R,3s,5S)-8-(pyridin-3-ylsulfonyl)-8-azabicyclo[3.2.1]octan-3-yl)-1,6-naphthyridine-5,7-diamine], the “DAI score as compared with vehicle treated animals” value is “statistically significant decrease”.

Consider `Cc1cc(Nc2cc3ncccc3c(N[C@@H]3C[C@H]4CCC[C@@H](C3)N4S(=O)(=O)c3ccccc3)n2)n[nH]1` [Example 9, N-(5-methyl-1H-pyrazol-3-yl)-N-((1R,3s,5S)-9-(phenylsulfonyl)-9-azabicyclo[3.3.1]nonan-3-yl)-1,6-naphthyridine-5,7-diamine], for which the “DAI score as compared with vehicle treated animals” value is reported as “did not exhibit a statistically significant decrease”.

As for `CCOCC(=O)N1[C@@H]2CCC[C@H]1C[C@H](Nc1nc(Nc3cc(C)[nH]n3)cc3ncccc13)C2` [Example 2-17], the “DAI score as compared with vehicle treated animals” value is “did not exhibit a statistically significant decrease”.

For `Cc1cc(Nc2cc3ncccc3c(N[C@@H]3C[C@H]4CC[C@@H](C3)N4CCF)n2)n[nH]1` [Example 2, N^5-((1R,3s,5S)-8-(2-fluoroethyl)-8-azabicyclo[3.2.1]octan-3-yl)-N^7-(5-methyl-1H-pyrazol-3-yl)-1,6-naphthyridine-5,7-diamine], the “DAI score as compared with vehicle treated animals” value is “statistically significant decrease”.

Turning to `Cc1cc(Nc2cc3ncccc3c(N[C@@H]3C[C@H]4CC[C@@H](C3)N4S(=O)(=O)C3CC3)n2)n[nH]1` [Example 4-4], the “DAI score as compared with vehicle treated animals” value is reported as “did not exhibit a statistically significant decrease”.
